{"source": "patent US8946283B2", "about": "“Composition for preventing or treating obesity, dyslipidemia, fatty liver or diabetes containing indole-3-carbinol derivative as active ingredient” (Industry-Academic Cooperation Foundation, Yonsei University, priority 2011, dated 2015)", "key": {"3T3-L1 cells": {"test_system": "3T3-L1 cells", "assay": "Inhibition of adipocyte differentiation, Oil Red O staining of triglyceride", "type": "cell-based, mouse", "method": "Mouse adipocyte cell line (3T3-L1) was used to investigate the effect of various indole-3-carbinol derivatives on differentiation and growth of adipocytes. The preadipocytes, 3T3-L1 cells, were seeded on a 12-well plate and cultured to confluency using Dulbecco's modified Eagle's medium (DMEM) containing 1% penicillin-streptomycin, 1% nonessential amino acid and 10% fatal bovine serum (FBS), in a 5% CO2 incubator at 37° C. The 3T3-L1 cells grown to confluency were cultured for 2 days in MDI medium containing 0.5 mM isobutylmethylxanthine, 1 μM dexamethasone and 1 μg/mL insulin to differentiate them into adipocytes. Then, the cells were further cultivated in DMEM containing 1 μg/mL insulin to differentiate them into mature adipocytes. The cells were further cultured for 10 more days while replacing DMEM every other day to obtain fully differentiated adipocytes.\nFrom the first day when MDI was added to the 3T3-L1 cells, 16 indole-3-carbinol derivative compounds were treated at concentrations of 0.1, 1, 10, 50 and 100 μM with 2-day intervals. The structure and molecular weight of the 16 indole-3-carbinol derivatives (B518, B521, B525, B528, B538, B540, B542, B544, B545, B546, B547, B549, B551, B556, B558 and B561) are described in Table 1. The derivative compounds were used after being dissolved in DMSO. Only DMSO was added to the negative control group.\nAfter culturing for a total of 14 days, the medium was removed when the differentiation was completed and lipid droplets in the differentiated adipocytes were stained. For this, the cells were washed twice with phosphate buffered saline (PBS), fixed in 10% buffered neutral formalin (BNF) for 1 hour, washed once again with PBS, stained for 1 hour by adding 1 mL of Oil Red O dye, which specifically stains fat red, on the 12-well plate, and washed twice with distilled water. In order to measure the level of triglyceride contained in the differentiated 3T3-L1 cells, the stained lipid droplets were dissolved in 1 mL of isobutanol and optical density (OD) value was measured at 600 nm."}, "[1]": {"assay": "Body weight gain and visceral fat weight of mice fed high-fat test diet", "type": "in vivo, C57BL/6J mice", "conditions": "0.05% in high-fat diet, 10 weeks", "method": "(§1) The obesity-inducing control diet used in the test was high-fat diet (HFD: 40% fat calorie, 17 g lard+3% corn oil/100 g diet). Diets supplemented with indole-3-carbinol derivatives (B525 and B528) had the same composition as HFD, except that each derivative was included at 0.05% (see Table 2). The diabetic drug metformin was added at 0.1% or the hyperlipidemic drug atorvastatin was added at 0.01% to HFD as controls. The normal diet group (Chow) was fed with commercially available rodent chow.\n(§2) 56 5-week-old male C57BL/6J mice (Orient, Korea) were accustomed to the laboratory environment for 1 week while feeding solid feed. Then, they were randomly divided into normal diet, high-fat diet and test groups (n=8/group) and bred for a total of 10 weeks. The diet was given between 10 and 11 a.m. every day together with water. Food intake was measured every day and body weight was measured once a week. In order to avoid transient body weight increase after feed intake, body weight was measured 2 hours after removing the feed. After fasting the test animal for at least 12 hours and anesthetizing with diethyl ether, blood, liver and visceral fat (epididymal fat, perirenal fat, mesenteric fat and retroperitoneal fat) were taken and weighed after washing with 0.1 M PBS (pH 7.4). Blood taken from the abdominal aorta was centrifuged at 1000×g for 15 minutes to separate the plasma."}, "[2]": {"assay": "Biochemical analysis of blood (plasma lipids) of mice fed high-fat test diet", "type": "in vivo, C57BL/6J mice", "conditions": "0.05% in high-fat diet, 10 weeks", "method": "as §1, §2\nAfter 10 weeks of breeding, total cholesterol, triglyceride and glucose levels in the plasma and lipid level in the liver tissue were measured as follows. Total cholesterol, triglyceride and free fatty acid levels in the plasma were measured twice for each using a commercially available kit (Bio Clinical System)."}, "[3]": {"assay": "Fasting blood sugar and oral glucose tolerance test in mice fed high-fat test diet", "type": "in vivo, C57BL/6J mice", "method": "as §1, §2\nOn week 8 after feeding the test diet, oral glucose tolerance test was performed for all the groups. After fasting the mouse for 16 hours, glucose (2 g glucose/10 mL distilled water/kg body weight) was orally administered. Before and 15, 30, 60 and 120 minutes after the oral administration, the tail end was cut by about […] and blood was taken. Glucose level was measured using a glucose meter."}, "[4]": {"assay": "Liver weight and lipid level in liver tissue of mice fed high-fat test diet", "type": "in vivo, C57BL/6J mice", "conditions": "0.05% in high-fat diet, 10 weeks", "method": "as §1, §2\nLipids were extracted from the liver tissue according to Folch et al.'s method Folch J et al., J Biol. Chem. 226: 497-509 (1957)). After adding 1 mL of distilled water to 0.25 g of liver tissue, the liver tissue was homogenized using a Polytron homogenizer (IKA-Werke GmbH & Co., Ultra-Turrax, Staufen, Germany). After adding 5 mL of chloroform:methanol solution (2:1, v/v) to the homogenate and mixing well, the mixture was centrifuged at 1000×g for 10 minutes. After adding 2 mL of chloroform:methanol solution (2:1, v/v) again to the supernatant, the same procedure was repeated to completely separate the lipid components of the liver. After adding 3 mL of chloroform:methanol:0.05% CaCl2 (3:48:47, v/v/v) solution to the remaining pellets and mixing well for 1 minute, followed by centrifugation at 1000×g for 10 minutes, the resulting pellets were completely dried with nitrogen gas. The dried lipids were dissolved in 1 mL of methanol and then analyzed.\nThe same kit (Bio Clinical System) as that used for the plasma analysis was used to measure the triglyceride and cholesterol levels of the liver tissue."}}}
{"compound": "C=CCN1C(=O)C(O)(c2c(C)[nH]c3ccccc23)c2cc(Br)ccc21", "note": "(centres unmarked) [B525, 1′-Allyl-5′-bromo-3′-hydroxy-2-methyl-1′,3′-dihydro-1H,2′H-3,3′-biindol-2′-one]", "values": [{"measurement": "differentiation of the preadipocytes 3T3L1", "setting": "3T3-L1 cells; 0.1, 1, 10, 50 and 100 μM, 14 days, vs DMSO control", "result": "reduced the differentiation of the preadipocytes 3T3L1 in a concentration-dependent manner"}, {"measurement": "triglyceride accumulation in cells", "setting": "3T3-L1 cells; 3T3-L1 cells, FIGS. 1-3", "result": "effectively reduce triglyceride accumulation in cells"}, {"measurement": "decrease of body weight gain as compared to HFD", "setting": "[1]", "result": 21, "unit": "%"}, {"measurement": "reduction of total visceral fat weight as compared to HFD", "setting": "[1]", "result": 20, "unit": "%"}, {"measurement": "weight of epididymal fat, perirenal fat, mesenteric fat and retroperitoneal fat as compared to HFD", "setting": "[1]", "result": "significantly reduced"}, {"measurement": "reduction of arteriosclerotic index in blood plasma as compared to HFD", "setting": "[2]", "result": 30, "unit": "%"}, {"measurement": "reduction of total cholesterol level in blood plasma as compared to HFD", "setting": "[2]", "result": 18, "unit": "%"}, {"measurement": "reduction of triglyceride level in blood plasma as compared to HFD", "setting": "[2]", "result": 32, "unit": "%"}, {"measurement": "reduction of fasting blood sugar level as compared to HFD", "setting": "[3]; 0.05% in high-fat diet, 8 weeks", "result": 37, "unit": "%"}, {"measurement": "effect on oral glucose tolerance compared to controls metformin and atorvastatin", "setting": "[3]; OGTT, week 8", "result": "excellent effect of improving oral glucose tolerance, better than the controls metformin and atorvastatin"}, {"measurement": "appearance of liver tissue as compared to HFD", "setting": "[4]", "result": "smaller and darker liver tissue"}, {"measurement": "decrease of cholesterol level in liver tissue as compared to HFD", "setting": "[4]", "result": 22, "unit": "%"}, {"measurement": "decrease of liver weight as compared to HFD", "setting": "[4]", "result": 26, "unit": "%"}, {"measurement": "decrease of triglyceride level in liver tissue as compared to HFD", "setting": "[4]", "result": 18, "unit": "%"}]}
